# Results from patent US8173631B2, “Cyclic amine compounds” (Daiichi Sankyo Company, Limited, priority 2008, dated 2012).
# Biological target: T1, human calcium-sensing receptor (CaSR) (Homo sapiens, UniProt P41180)
# T1 construct: expressed in transfected cells
# T1 sequence (P41180 20-1078): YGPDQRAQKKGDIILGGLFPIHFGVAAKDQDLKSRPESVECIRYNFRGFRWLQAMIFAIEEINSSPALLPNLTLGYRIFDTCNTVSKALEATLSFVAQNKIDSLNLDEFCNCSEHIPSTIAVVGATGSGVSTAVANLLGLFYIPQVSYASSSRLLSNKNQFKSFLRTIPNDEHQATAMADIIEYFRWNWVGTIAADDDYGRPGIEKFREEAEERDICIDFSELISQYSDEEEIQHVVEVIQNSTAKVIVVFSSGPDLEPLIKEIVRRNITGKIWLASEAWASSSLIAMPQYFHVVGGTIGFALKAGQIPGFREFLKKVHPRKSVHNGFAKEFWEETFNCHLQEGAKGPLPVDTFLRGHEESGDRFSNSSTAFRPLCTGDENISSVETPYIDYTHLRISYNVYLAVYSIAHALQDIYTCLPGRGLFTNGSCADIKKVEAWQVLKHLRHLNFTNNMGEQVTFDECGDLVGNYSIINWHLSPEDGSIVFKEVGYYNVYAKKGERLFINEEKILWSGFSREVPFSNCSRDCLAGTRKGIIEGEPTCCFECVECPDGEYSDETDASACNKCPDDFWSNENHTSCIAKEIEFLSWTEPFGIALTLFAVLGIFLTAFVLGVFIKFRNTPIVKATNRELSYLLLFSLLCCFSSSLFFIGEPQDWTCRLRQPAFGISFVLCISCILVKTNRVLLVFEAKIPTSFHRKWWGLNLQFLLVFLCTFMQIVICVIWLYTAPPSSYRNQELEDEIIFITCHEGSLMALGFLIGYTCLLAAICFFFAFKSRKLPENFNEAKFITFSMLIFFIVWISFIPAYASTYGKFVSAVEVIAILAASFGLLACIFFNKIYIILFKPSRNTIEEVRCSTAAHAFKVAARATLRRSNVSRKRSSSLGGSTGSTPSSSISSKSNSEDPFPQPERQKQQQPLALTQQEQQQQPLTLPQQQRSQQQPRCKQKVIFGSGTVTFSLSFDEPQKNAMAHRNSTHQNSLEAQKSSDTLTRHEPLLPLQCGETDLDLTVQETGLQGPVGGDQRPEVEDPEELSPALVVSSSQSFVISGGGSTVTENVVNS
# Test: Inhibitory activity on calcium-sensing receptor (CaSR), intracellular calcium increase as indicator (FLIPR, CHO/hCaSR)
# Assay type: cell-based
# Conditions: CHO cells stably expressing human CaSR; inhibition of intracellular Ca increase induced by extracellular CaCl2
# Procedure: Evaluation of inhibitory activity on calcium-sensing receptor (CaSR) using intracellular calcium increase as an indicator
# The preparation which is prepared by adding CHO/hCaSR to F12 medium (manufactured by Invitrogen) containing 10% fetal bovine serum to have 2×10^5 cells/mL was applied to a 384-well in an amount of 50 μL/well, and then incubated overnight in a CO2 incubator. The culture supernatant was completely removed, the assay buffer (20 mM HEPES, HBSS (Ca and Mg free) containing 2.5 mM probenecid, pH 7.4) containing Calcium 3 (manufactured by Molecular Devices), i.e., a fluorescent intracellular calcium indicator, was added thereto in an amount of 25 μL/well, and the mixture was maintained for 1 hour in a CO2 incubator. Meanwhile, Calcium 3 was prepared according to the protocol enclosed in FLIPR Calcium 3 Assay Kit (manufactured by Molecular Devices). After maintaining it for 1 hour, a solution in which the test compound is prepared to have 2.1 to 20,000 nM (final concentration of 1.05 to 10,000 nM) by an assay buffer was added thereto in an amount of 25 μL/well, and maintained for 15 minutes in a CO2 incubator. Then, the CaCl2 solution prepared to have […] by using the assay buffer was added in an amount of 25 μL/well, and the resulting intracellular Ca increase (i.e., fluorescence intensity) was measured over time using a fluorescence imaging plate reader (FLIPR, manufactured by Molecular Devices). From the data obtained, the difference between the fluorescence intensity before the addition of CaCl2 solution and the maximum fluorescence intensity after the addition of CaCl2 solution was calculated, and the 50% inhibition concentration (IC50) of the test compound was obtained.
row,Structure (SMILES),IC50 [µM]
1,"Cc1ccc(C[C@@H]2CCCN2C[C@@H](O)CO[C@H](C)c2ccccc2/C=C/C(=O)O)cc1F [Example 1, (2E)-3-{2-[(1R)-1-({(2R)-3-[(2S)-2-(3-Fluoro-4-methylbenzyl)pyrrolidin-1-yl]-2-hydroxypropyl}oxy)ethyl]phenyl}prop-2-enoic acid]",≤ 3.62
2,"Cc1ccc(C[C@@H]2CCCN2C[C@@H](O)CO[C@H](C)c2ccccc2CCC(=O)O)cc1F [Example 2, 3-{2-[(1R)-1-({(2R)-3-[(2S)-2-(3-Fluoro-4-methylbenzyl)pyrrolidin-1-yl]-2-hydroxypropyl}oxy)ethyl]phenyl}propanoic acid]",≤ 3.61
3,"Cc1ccc(C[C@@H]2CCCN2C[C@@H](O)CO[C@H](C)c2cccc(C)c2CCC(=O)O)cc1F [Example 3, 3-{2-[(1R)-1-({(2R)-3-[(2S)-2-(3-Fluoro-4-methylbenzyl)pyrrolidin-1-yl]-2-hydroxypropyl}oxy)ethyl]-6-methylphenyl}propanoic acid]",≤ 3.5
4,"Cc1ccc([C@@H](C)OC[C@H](O)CN2CCC[C@H]2Cc2ccc(C)c(F)c2)c(CCC(=O)O)c1 [Example 4, 3-{2-[(1R)-1-({(2R)-3-[(2S)-2-(3-Fluoro-4-methylbenzyl)pyrrolidin-1-yl]-2-hydroxypropyl}oxy)ethyl]-5-methylphenyl}propanoic acid]",≤ 3.5
5,"Cc1ccc(C[C@@H]2CCCN2C[C@@H](O)CO[C@H](C)c2cccc(F)c2CCC(=O)O)cc1F [Example 6, 3-{2-Fluoro-6-[(1R)-1-({(2R)-3-[(2S)-2-(3-fluoro-4-methylbenzyl)pyrrolidin-1-yl]-2-hydroxypropyl}oxy)ethyl]phenyl}propanoic acid]",≤ 3.47
6,"Cc1ccc(C[C@@H]2CCCN2C[C@@H](O)CO[C@H](C)c2cc(F)ccc2CCC(=O)O)cc1F [Example 8, 3-{4-Fluoro-2-[(1R)-1-({(2R)-3-[(2S)-2-(3-fluoro-4-methylbenzyl)pyrrolidin-1-yl]-2-hydroxypropyl}oxy)ethyl]phenyl}propanoic acid]",≤ 3.47
7,"Cc1ccc(C[C@@H]2CCCN2C[C@@H](O)CO[C@H](C)c2ccccc2CCCCC(=O)O)cc1F [Example 13, 5-{2-[(1R)-1-({(2R)-3-[(2S)-2-(3-Fluoro-4-methylbenzyl)pyrrolidin-1-yl]-2-hydroxypropyl}oxy)ethyl]phenyl}pentanoic acid]",≤ 3.39
8,"Cc1ccc(C[C@@H]2CCN2C[C@@H](O)CO[C@H](C)c2ccccc2CCCCC(=O)O)cc1F [Example 15, 5-{2-[(1R)-1-({(2R)-3-[(2R)-2-(3-Fluoro-4-methylbenzyl)azetidin-1-yl]-2-hydroxypropyl}oxy)ethyl]phenyl}pentanoic acid]",≤ 3.5
9,COc1cccc([C@@H](C)OC[C@H](O)CN2CCC[C@H]2Cc2ccc(C)c(F)c2)c1CCC(=O)O [Example 18],≤ 3.38
10,CC[C@@H](OC[C@H](O)CN1CCC[C@H]1Cc1ccc(C)c(F)c1)c1ccccc1CCC(=O)O [Example 19],≤ 3.5
11,Cc1ccc(C[C@@H]2CCCN2C[C@@H](O)CO[C@H](C)c2ccc(F)c(C)c2CCC(=O)O)cc1F [Example 20],≤ 3.36
12,CCC[C@@H](OC[C@H](O)CN1CCC[C@H]1Cc1ccc(C)c(F)c1)c1ccccc1CCC(=O)O [Example 21],≤ 3.39
13,Cc1ccc(C[C@@H]2CCCN2C[C@@H](O)CO[C@H](C)c2cc(F)c(C)cc2CCC(=O)O)cc1F [Example 22],≤ 3.36
14,Cc1ccc(C[C@@H]2CCCN2C[C@@H](O)CO[C@H](C)c2cc(F)c(C)cc2CCCCC(=O)O)cc1F [Example 23],≤ 3.18
15,Cc1ccc(C[C@@H]2CCCN2C[C@@H](O)CO[C@H](C)c2cc(F)c(F)cc2CCC(=O)O)cc1F [Example 26],≤ 3.34
16,Cc1ccc(C[C@@H]2CCCN2C[C@@H](O)CO[C@H](C)c2cc(F)cc(F)c2CCC(=O)O)cc1F [Example 27],≤ 3.34
17,Cc1ccc(C[C@@H]2CCCN2C[C@@H](O)CO[C@@H](c2ccccc2CCC(=O)O)C2CC2)cc1F [Example 29],≤ 3.41
18,Cc1ccc(C[C@@H]2CCCN2C[C@@H](O)CO[C@H](C)c2cc(F)c(F)cc2CCCCC(=O)O)cc1F [Example 30],≤ 3.15
19,Cc1ccc(C[C@@H]2CCCN2C[C@@H](O)COC(C)c2c(F)cccc2CCC(=O)O)cc1F (some centres unmarked) [Example 31],≤ 3.47
20,Cc1ccc(C[C@@H]2CCCN2C[C@@H](O)COC(C)c2c(C)cccc2CCC(=O)O)cc1F (some centres unmarked) [Example 32],≤ 3.5
21,COc1cc(F)cc([C@@H](C)OC[C@H](O)CN2CCC[C@H]2Cc2ccc(C)c(F)c2)c1CCC(=O)O [Example 33],≤ 3.25
22,Cc1ccc(C[C@@H]2CCCN2C[C@@H](O)COC(C)c2c(CCC(=O)O)ccc(F)c2F)cc1F (some centres unmarked) [Example 34],≤ 3.34
23,C[C@@H](OC[C@H](O)CN1CCC[C@H]1Cc1ccc(F)c(F)c1)c1ccccc1CCC(=O)O [Example 38],≤ 3.58
24,CCc1cccc(C[C@@H]2CCCN2C[C@@H](O)CO[C@H](C)c2ccccc2CCC(=O)O)c1 [Example 39],≤ 3.64
25,COc1cccc([C@@H](C)OC[C@H](O)CN2CCC[C@H]2Cc2ccc(C)c(F)c2)c1CCCCC(=O)O [Example 42],≤ 3.19
26,CC[C@@H](OC[C@H](O)CN1CCC[C@H]1Cc1ccc(C)c(F)c1)c1cc(F)ccc1CCC(=O)O [Example 43],≤ 3.36
27,CC[C@@H](OC[C@H](O)CN1CCC[C@H]1Cc1ccc(C)c(F)c1)c1cccc(F)c1CCC(=O)O [Example 44],≤ 3.36

# The remaining lines, values ahead:
row,IC50 [µM],Structure (SMILES)
1,≤ 3.39,CC[C@@H](OC[C@H](O)CN1CCC[C@H]1Cc1ccc(C)c(F)c1)c1ccc(C)cc1CCC(=O)O [Example 45]
2,≤ 3.28,CC[C@@H](OC[C@H](O)CN1CCC[C@H]1Cc1ccc(C)c(F)c1)c1cccc(OC)c1CCC(=O)O [Example 46]
3,≤ 3.39,CC[C@@H](OC[C@H](O)CN1CCC[C@H]1Cc1ccc(C)c(F)c1)c1cccc(C)c1CCC(=O)O [Example 47]
4,≤ 3.47,Cc1ccc(C[C@@H]2C[C@@H](F)CN2C[C@@H](O)CO[C@H](C)c2ccccc2CCC(=O)O)cc1F [Example 48]
5,≤ 3.48,Cc1ccc(C[C@@H]2C[C@@H](O)CN2C[C@@H](O)CO[C@H](C)c2ccccc2CCC(=O)O)cc1F [Example 49]
6,≤ 3.29,Cc1ccc([C@@H](C)OC[C@H](O)CN2CCC[C@H]2Cc2ccc(C)c(F)c2)c(CCCCC(=O)O)c1 [Example 53]
7,≤ 3.27,Cc1ccc(C[C@@H]2CCCN2C[C@@H](O)CO[C@H](C)c2ccc(F)cc2CCCCC(=O)O)cc1F [Example 54]
8,≤ 3.27,Cc1ccc(C[C@@H]2CCCN2C[C@@H](O)CO[C@H](C)c2cc(F)ccc2CCCCC(=O)O)cc1F [Example 55]
9,≤ 3.29,Cc1ccc(C[C@@H]2CCCN2C[C@@H](O)CO[C@H](C)c2cccc(C)c2CCCCC(=O)O)cc1F [Example 57]
10,≤ 3.27,Cc1ccc(C[C@@H]2CCCN2C[C@@H](O)CO[C@H](C)c2cccc(F)c2CCCCC(=O)O)cc1F [Example 58]
11,≤ 2.97,Cc1ccc(C[C@@H]2CCCN2C[C@@H](O)CO[C@H](C)c2cc(C(F)(F)F)ccc2CCCCC(=O)O)cc1F [Example 60]
12,≤ 3.27,CCC[C@@H](OC[C@H](O)CN1CCC[C@H]1Cc1ccc(C)c(F)c1)c1cc(F)ccc1CCC(=O)O [Example 61]
13,≤ 3.29,CCC[C@@H](OC[C@H](O)CN1CCC[C@H]1Cc1ccc(C)c(F)c1)c1cccc(C)c1CCC(=O)O [Example 62]
14,≤ 3.27,CCC[C@@H](OC[C@H](O)CN1CCC[C@H]1Cc1ccc(C)c(F)c1)c1cccc(F)c1CCC(=O)O [Example 63]
